Source: US11130766B2, “Deuterated thienopiperidine derivatives, manufacturing method, and application thereof” (JIANGSU TASLY DIYI PHARMACEUTICAL CO., LTD., priority 2015, dated 2021)
Read-outs that look alike come from different tables or passages of the source. Marks after values point to notes of the source that are not given here.

Experiments:
esterase [1] = details: rat whole blood, 37° C., 30 μg/mL
Protocol: The hydrolysis rates of formula TSD-6 and clopidogrel bisulfate in the rat whole blood were determined by employing the in vitro incubation method.
3 mL of the rat fresh whole blood was taken and placed in a glass test tube. 30 μg/mL of formula TSD-6 and clopidogrel bisulfate (prepared with saline) were added, with 3 parallel tests for each group. The test tubes were shocked at a constant temperature of 37° C., 100 μL of the mixture was taken out at fixed time points of 10 min, 20 min, 30 min, 40 min, 50 min, 60 min, 70 min, 80 min, 90 min, 100 min, 110 min, and 120 min, into which 900 μL of methanol was added to stop the reaction immediately, then 100 μL methanol/water (1:1, v/v) and 100 μL internal standard (diazepam, 100 ng/mL) were added sequentially. The mixture was centrifuged at 13000 rpm at low temperature for 10 min, the supernatant was transferred into another EP tube, and 20 μL of the supernatant was taken for sample injection.

esterase [2] = assay: Esterase hydrolysis rates of TSD-8 and clopidogrel bisulfate, in vitro incubation in rat whole blood; format: in vitro ADME; set-up: sample test results (concentration) Num. 1 / sample test results (concentration) Num. 2 / sample test results (concentration) Num. 3 / sample test results (concentration) Mean: unit not given here; details: rat whole blood, 37° C., 30 μg/mL
[3] = tested on: Rat Arteriovenous Thrombus Loop Model; details: SD rat, 10 mg/kg oral gavage, 4 h after administration, 15 min circulation
Source text: genus, strain: SD rat, • Provider: Slac • Weight: 250-350 g • Sex: male • Animal number: 30
Apparatus and Materials • Swab, dry tampon, alcohol pad, anerdian tampon. • Surgical scissor, ophthalmic forceps, hemostatic forceps, microsurgical scissor, microsurgical forceps, artery clamps. • 3-0 surgical suture, thick PE tube (I.D.*O.D.=1.14 mm*1.63 mm, 8 cm long), think PE tube (I.D.*O.D.=0.72 mm*1.22 mm, 6 cm long). • Surgical board, binding rope, timer, precise electronic balance, weighing paper. • Syringe, normal saline.
7. Experimental Method • After arrival, the animals were let adapt to the environment for 1 week and fasted for 16 hours prior to the test. • The arteriovenous blood loop circulation was started 2 h after oral administration of the test compounds and 4 h after oral administration of clopidogrel. • The rats were anesthetized with pentobarbital sodium (50 mg/kg, ip) 15 min before the arteriovenous blood loop circulation was started. • The left external jugular vein and the right carotid artery were separated and inserted with thin PE tubes respectively. • Two PE tubes were connected with another thick PE tube with a length of 8 cm to form a circulation passage. There's a 6 cm surgical suture (3-0) in the thick PE tube. • 15 min after the circulation passage was opened, the blood flow was blocked, the filament was taken out and weighed after the blood was sucked out. The thrombus weight was obtained after subtraction of the weight of the filament itself.

Rat Tail Bleeding Model = details: SD rat, 10 mg/kg oral gavage, 4 h after administration
Protocol: genus, strain SD rat, • Provider: Slac • Weight: 250-350 g • Sex: male • Animal number: 30
Experimental Method: • The animals were allowed adapt to the environment after arrival for 1 week and fasted for 16 hours prior to the experiment. • The tail bleeding time started to be recorded 2 h after oral administration of the test compounds and 4 h after oral administration of clopidogrel. • The rats were anesthetized with pentobarbital sodium (50 mg/kg, ip) 10 min prior to the recording of the tail bleeding time, after the rat was completely anesthetized and reaching the detection time, the tail was cut at 1.3 mm from the rat tail-tip with a scissor and perpendicularly immerged into a saline at 37° C. Timing recording was not started until the blood flow appeared. • The timing recording was stopped when the bleeding time interval was longer than 20 seconds. The maximum observation time for the blood flow was set for 40 minutes. If it was longer than 40 minutes, the timing recording was stopped and the time was recorded as 40 minutes.

[4] = tested on: ADP induced platelet aggregation; assay: ADP induced platelet aggregation, maximum aggregation rate after administration to rats; format: in vivo, Wistar male rats; details: ADP induced, rats, 3 mg/kg, blood drawn 2 hours after administration
Protocol: Addition of small dose of ADP (concentration less than 0.9 μmol/L) into the platelet suspension could lead to rapid platelet aggregation, followed by quick disaggregation; if moderate dose of ADP (about 1.0 μmol/L) was added, then the second irreversible aggregation phase appeared not long after the end of the first aggregation phase and the disaggregation. The maximum aggregation rate of the irreversible aggregation phase was used to evaluate the effect of the test samples on the function of blood coagulation.
Animals: Wistar male rats, weighing 230-250 g, were purchased from Vital River Laboratory Animal Technology Co., Ltd.
Reagent: ADP, Sigma Corporation.
Test samples: 16 test samples were provided by the Tasly Group; referred to China patent application 201310428052.4 for manufacturing method of TSC-1˜4 and TSC-6˜9.
Dose of administration: the test samples were suspended with 0.25% CMC, administered 3 mg/kg weight, volume of administration: 2 mL.
2 Hours after administration, the rats were anesthetized with pentobarbital sodium, and blood was drawn from the abdominal aorta, anticoagulated with sodium citrate with a ratio of 1:9, and centrifuged to obtain the platelet-rich plasma and platelet-poor plasma, with the mixed ratio of the platelet-poor plasma to platelet-rich plasma=3:1.

- time at which the concentration in the whole blood was lower than the quantitative lower limit (esterase [1]): around 50 min
- sample test results (concentration) Mean (esterase [1]; 10 min): 211.0
- sample test results (concentration) Num. 1 (esterase [1]; 10 min): 238
- sample test results (concentration) Num. 2 (esterase [1]; 10 min): 221
- sample test results (concentration) Num. 3 (esterase [1]; 10 min): 174
- sample test results (concentration) Mean (esterase [1]; 20 min): 89.6
- sample test results (concentration) Num. 1 (esterase [1]; 20 min): 66.2
- sample test results (concentration) Num. 2 (esterase [1]; 20 min): 128
- sample test results (concentration) Num. 3 (esterase [1]; 20 min): 74.7
- sample test results (concentration) Mean (esterase [1]; 30 min): 35.1
- sample test results (concentration) Num. 1 (esterase [1]; 30 min): 24.1
- sample test results (concentration) Num. 2 (esterase [1]; 30 min): 57.2
- sample test results (concentration) Num. 3 (esterase [1]; 30 min): 24.1
- sample test results (concentration) Mean (esterase [1]; 40 min): 11.2
- sample test results (concentration) Num. 1 (esterase [1]; 40 min): 6.27
- sample test results (concentration) Num. 2 (esterase [1]; 40 min): 15.1
- sample test results (concentration) Num. 3 (esterase [1]; 40 min): 19.3
- sample test results (concentration) Mean (esterase [1]; 50 min): 0.70
- sample test results (concentration) Num. 1 (esterase [1]; 50 min): 0.449
- sample test results (concentration) Num. 2 (esterase [1]; 50 min): 1.12
- sample test results (concentration) Num. 3 (esterase [1]; 50 min): 0.518
- sample test results (concentration) Mean (esterase [1]; 60 min): 0.62
- sample test results (concentration) Num. 1 (esterase [1]; 60 min): 0.417
- sample test results (concentration) Num. 2 (esterase [1]; 60 min): 1.45
- sample test results (concentration) Num. 3 (esterase [1]; 60 min): 0
- sample test results (concentration) Mean (esterase [1]; 90 min): 0
- sample test results (concentration) Num. 1 (esterase [1]; 90 min): 0
- sample test results (concentration) Num. 2 (esterase [1]; 90 min): 0
- sample test results (concentration) Num. 3 (esterase [1]; 90 min): 0
- sample test results (concentration) Mean (esterase [1]; 100 min): 0
- sample test results (concentration) Num. 1 (esterase [1]; 100 min): 0
- sample test results (concentration) Num. 2 (esterase [1]; 100 min): 0
- sample test results (concentration) Num. 3 (esterase [1]; 100 min): 0
- sample test results (concentration) Mean (esterase [1]; 110 min): 0
- sample test results (concentration) Num. 1 (esterase [1]; 110 min): 0
- sample test results (concentration) Num. 2 (esterase [1]; 110 min): 0
- sample test results (concentration) Num. 3 (esterase [1]; 110 min): 0
- sample test results (concentration) Mean (esterase [1]; 120 min): 0
- sample test results (concentration) Num. 1 (esterase [1]; 120 min): 0
- sample test results (concentration) Num. 2 (esterase [1]; 120 min): 0
- sample test results (concentration) Num. 3 (esterase [1]; 120 min): 0
- time at which the concentration in the whole blood was lower than the quantitative lower limit (esterase [2]): around 50 min
- sample test results (concentration) Mean (esterase [2]; 10 min): 199.50
- sample test results (concentration) Num. 1 (esterase [2]; 10 min): 232
- sample test results (concentration) Num. 3 (esterase [2]; 10 min): 167
- sample test results (concentration) Mean (esterase [2]; 20 min): 90.53
- sample test results (concentration) Num. 1 (esterase [2]; 20 min): 64.1
- sample test results (concentration) Num. 2 (esterase [2]; 20 min): 131
- sample test results (concentration) Num. 3 (esterase [2]; 20 min): 76.5
- sample test results (concentration) Mean (esterase [2]; 30 min): 34.07
- sample test results (concentration) Num. 1 (esterase [2]; 30 min): 20.6
- sample test results (concentration) Num. 2 (esterase [2]; 30 min): 53
- sample test results (concentration) Num. 3 (esterase [2]; 30 min): 28.6
- sample test results (concentration) Mean (esterase [2]; 40 min): 11.82
- sample test results (concentration) Num. 1 (esterase [2]; 40 min): 6.46
- sample test results (concentration) Num. 2 (esterase [2]; 40 min): 14.3
- sample test results (concentration) Num. 3 (esterase [2]; 40 min): 14.7
- sample test results (concentration) Mean (esterase [2]; 50 min): 0.62
- sample test results (concentration) Num. 1 (esterase [2]; 50 min): 0.479
- sample test results (concentration) Num. 2 (esterase [2]; 50 min): 1.01
- sample test results (concentration) Num. 3 (esterase [2]; 50 min): 0.359
- sample test results (concentration) Mean (esterase [2]; 60 min): 0.53
- sample test results (concentration) Num. 1 (esterase [2]; 60 min): 0.347
- sample test results (concentration) Num. 2 (esterase [2]; 60 min): 1.24
- sample test results (concentration) Num. 3 (esterase [2]; 60 min): 0
- sample test results (concentration) Mean (esterase [2]; 90 min): 0.00
- sample test results (concentration) Num. 1 (esterase [2]; 90 min): 0
- sample test results (concentration) Num. 2 (esterase [2]; 90 min): 0
- sample test results (concentration) Num. 3 (esterase [2]; 90 min): 0
- sample test results (concentration) Mean (esterase [2]; 100 min): 0.00
- sample test results (concentration) Num. 1 (esterase [2]; 100 min): 0
- sample test results (concentration) Num. 2 (esterase [2]; 100 min): 0
- sample test results (concentration) Num. 3 (esterase [2]; 100 min): 0
- sample test results (concentration) Mean (esterase [2]; 110 min): 0.00
- sample test results (concentration) Num. 1 (esterase [2]; 110 min): 0
- sample test results (concentration) Num. 2 (esterase [2]; 110 min): 0
- sample test results (concentration) Num. 3 (esterase [2]; 110 min): 0
- sample test results (concentration) Mean (esterase [2]; 120 min): 0.00
- sample test results (concentration) Num. 1 (esterase [2]; 120 min): 0
- sample test results (concentration) Num. 2 (esterase [2]; 120 min): 0
- sample test results (concentration) Num. 3 (esterase [2]; 120 min): 0
Compound: COC(=O)[C@H](c1ccccc1Cl)N1CCc2sccc2C1 [clopidogrel, Clopidogrel, reference compound]
- Thrombus (mg) [3]: 20.1** mg
- Tail Bleeding Time (s) (Rat Tail Bleeding Model): 1896*** s
- Maximum Platelet Aggregation Rate [4]: 46.77 ± 8.28
